From ChEMBL document CHEMBL6127136, “Discovery of 1-(Phenylsulfonyl)-1,2,3,4-tetrahydroquinoline Derivative as Orally Bioavailable and Safe RORγt Inverse Agonists for Potential Treatment of Rheumatoid Arthritis” (J Med Chem, 2024)
Active and inactive are the calls of the source. No cut-off for these calls is given here.

Assays:
[1] = target: T1, Nuclear receptor ROR-gamma (Homo sapiens, UniProt P51449); assay: Inverse agonist activity at N-terminal 6-His-tagged/APC-labeled human RORgammat LBD extracted from Escherichia coli assessed as inhibition of europium-labeled SRC-1 recruitment incubated for 3 hrs by TR-FRET analysis
T1 sequence (P51449 whole entry): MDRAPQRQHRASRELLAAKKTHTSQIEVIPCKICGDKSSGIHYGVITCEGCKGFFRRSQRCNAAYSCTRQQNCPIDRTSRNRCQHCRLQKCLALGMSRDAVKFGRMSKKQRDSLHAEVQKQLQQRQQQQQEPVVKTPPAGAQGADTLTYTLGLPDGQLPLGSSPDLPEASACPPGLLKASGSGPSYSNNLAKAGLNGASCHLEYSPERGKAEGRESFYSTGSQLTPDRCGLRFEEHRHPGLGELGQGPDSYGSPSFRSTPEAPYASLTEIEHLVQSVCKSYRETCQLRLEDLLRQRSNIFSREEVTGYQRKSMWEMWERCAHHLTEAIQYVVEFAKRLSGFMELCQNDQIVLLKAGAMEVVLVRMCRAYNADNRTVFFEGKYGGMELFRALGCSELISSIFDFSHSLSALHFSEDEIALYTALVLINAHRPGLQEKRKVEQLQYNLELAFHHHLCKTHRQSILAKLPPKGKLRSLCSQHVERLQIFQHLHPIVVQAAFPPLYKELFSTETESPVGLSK

[2] = test system: HeLa; assay: Antiproliferative activity against human HeLa cells assessed as inhibition of colony formation at 2 to 8 uM incubated for 7 days by crystal violet staining based light microscopic analysis; format: toxicity, cell-based; settings: 168 h, dose 2-8 µM, time 7 day
[3] = test system: HUVEC; assay: Antiproliferative activity against HUVEC cells assessed as inhibition of colony formation at 2 to 8 uM incubated for 7 days by crystal violet staining based light microscopic analysis; format: toxicity, cell-based; settings: human, 168 h, dose 2-8 µM, time 7 day
[4] = Toxicity in chicken type II collagen-induced arthritis DBA/1 mouse model assessed as behavioral abnormalities at 20 mg/kg/day, po measured after 42 days; format: organism-based; settings: in vivo, 1008 h, time 42 day
[5] = Toxicity in chicken type II collagen-induced arthritis DBA/1 mouse model assessed as body weight loss at 20 mg/kg/day, po measured after 42 days; format: organism-based; settings: in vivo, 1008 h, time 42 day
[6] = test system: Mus musculus; assay: Antiarthritic activity in chicken type II collagen-induced arthritis DBA/1 mouse model assessed as reduction in clinical score at 20 mg/kg/day, po measured after 42 days; format: functional, organism-based; settings: time 42.0 day
[7] = Toxicity in chicken type II collagen-induced arthritis DBA/1 mouse model assessed as increase in thymic cortex to medulla ratio at 20 mg/kg/day, po administered for 2 weeks by H and E staining based analysis; format: organism-based; settings: in vivo, 336 h
[8] = Toxicity in chicken type II collagen-induced arthritis DBA/1 mouse model assessed as signs of thymic enlargement at 20 mg/kg/day, po administered for 2 weeks by H and E staining based analysis; format: organism-based; settings: in vivo, 336 h
[9] = Toxicity in chicken type II collagen-induced arthritis DBA/1 mouse model assessed as signs of lymphoma at 20 mg/kg/day, po administered for 2 weeks by H and E staining based analysis; format: organism-based; settings: in vivo, 336 h
[10] = Toxicity in chicken type II collagen-induced arthritis DBA/1 mouse model assessed as morphological changes in thymocytes at 20 mg/kg/day, po administered for 2 weeks by H and E staining based analysis; format: organism-based; settings: in vivo, 336 h
[11] = test system: Mus musculus; assay: Antiarthritic activity in chicken type II collagen-induced arthritis DBA/1 mouse model assessed as improvement in arthritic symptoms at 20 mg/kg/day, po administered for 2 weeks by H and E staining based analysis; format: functional, organism-based
[12] = test system: Mus musculus; assay: Antiarthritic activity in chicken type II collagen-induced arthritis DBA/1 mouse model assessed as reduction in fore paw erythema at 20 mg/kg/day, po administered for 2 weeks by H and E staining based analysis; format: functional, organism-based
[13] = test system: Mus musculus; assay: Antiarthritic activity in chicken type II collagen-induced arthritis DBA/1 mouse model assessed as reduction in fore paw swelling at 20 mg/kg/day, po administered for 2 weeks by H and E staining based analysis; format: functional, organism-based
[14] = test system: Mus musculus; assay: Antiarthritic activity in chicken type II collagen-induced arthritis DBA/1 mouse model assessed as reduction in fore paw thickness at 20 mg/kg/day, po administered for 2 weeks by H and E staining based analysis; format: functional, organism-based
[15] = test system: Mus musculus; assay: Antiarthritic activity in chicken type II collagen-induced arthritis DBA/1 mouse model assessed as reduction in hind paw erythema at 20 mg/kg/day, po administered for 2 weeks by H and E staining based analysis; format: functional, organism-based
[16] = test system: Mus musculus; assay: Antiarthritic activity in chicken type II collagen-induced arthritis DBA/1 mouse model assessed as reduction in hind paw swelling at 20 mg/kg/day, po administered for 2 weeks by H and E staining based analysis; format: functional, organism-based
[17] = test system: Mus musculus; assay: Antiarthritic activity in chicken type II collagen-induced arthritis DBA/1 mouse model assessed as reduction in hind paw thickness at 20 mg/kg/day, po administered for 2 weeks by H and E staining based analysis; format: functional, organism-based
[18] = target: T1, Nuclear receptor ROR-gamma; assay: Inverse agonist activity at GAL4 DNA-binding domain fused RORgamma (unknown origin) transfected in HEK293T cells co-transfected with GAL4-promoter driven luciferase reporter gene assessed as inhibition of RORgammat transcription incubated for 18 to 20 hrs by plate reader analysis; format: cell-based

IC50 [1]	Structure (SMILES)	further results
11 nM	CCc1ccc2c(c1)CCC(CC)N2S(=O)(=O)c1ccc(OCC2CCOCC2)c(CO)c1 (racemic)	Activity [2]: Non-Toxic; Activity [3]: Non-Toxic
23 nM	CCc1ccc2c(c1)CCC(C(F)(F)F)N2S(=O)(=O)c1ccc(OCC2CCOCC2)c(CO)c1 (racemic)	
310 nM	CCc1ccc2c(c1)CCC(C)(C)N2S(=O)(=O)c1ccc(OCC2CCOCC2)c(CO)c1	
3420 nM	CCc1ccc2c(c1)CCC(CO)N2S(=O)(=O)c1ccc(OCC2CCOCC2)c(CO)c1 (racemic)	
21 nM	CC1CCc2cc(C3CC3)ccc2N1S(=O)(=O)c1ccc(OCC2CCOCC2)c(CO)c1 (racemic)	
36 nM	CCc1ccc2c(c1)CC(C)CN2S(=O)(=O)c1ccc(OCC2CCOCC2)c(CO)c1 (racemic)	
2 nM	CCc1ccc2c(c1)CCC(C(C)C)N2S(=O)(=O)c1ccc(OCC2CCOCC2)c(CO)c1 (racemic)	
24 nM	CCc1ccc2c(c1)CCC(C)N2S(=O)(=O)c1ccc(OCC2CCOCC2)c(CO)c1 (racemic)	
21 nM	CCc1ccc2c(c1)CCC(CC(C)C)N2S(=O)(=O)c1ccc(OCC2CCOCC2)c(CO)c1 (racemic)	
858 nM	CCc1ccc2c(c1)CCCN2S(=O)(=O)c1ccc(OCC2CCOCC2)c(CO)c1	
689 nM	CC1CCc2cc(C#N)ccc2N1S(=O)(=O)c1ccc(OCC2CCOCC2)c(CO)c1 (racemic)	

Further lines, the compound ahead of its results:

Structure (SMILES)	IC50 [1]	further results
CCC1CCc2cc(C(C)(C)C)ccc2N1S(=O)(=O)c1ccc(OCC2CCOCC2)c(CO)c1 (racemic)	70 nM	
CCc1ccc2c(c1)CCC(CC)N2S(=O)(=O)c1ccc(OCC2CCOCC2)c(S(N)(=O)=O)c1 (racemic)	576 nM	
O=C([O-])Cc1ccccc1Nc1c(Cl)cccc1Cl.[Na+] [DICLOFENAC SODIUM]		Activity [4]: Non-Toxic; Activity [5]: Non-Toxic; Activity [6]: Active; Activity [7]: Toxic; Activity [8]: Non-Toxic; Activity [9]: Non-Toxic; Activity [10]: Non-Toxic; Activity [11]: Active; Activity [12]: Active; Activity [13]: Active; Activity [14]: Active; Activity [15]: Active; Activity [16]: Active; Activity [17]: Active
CCc1ccc2c(c1)C(C)CCN2S(=O)(=O)c1ccc(OCC2CCOCC2)c(CO)c1 (racemic)	655 nM	
CCc1ccc2c(c1)CCC(CC)N2S(=O)(=O)c1ccc(OCCC(C)(C)O)c(CO)c1 (racemic)	459 nM	
C=C(C)c1ccc2c(c1)CCC(CC)N2S(=O)(=O)c1ccc(OCC2CCOCC2)c(CO)c1 (racemic)	12 nM	
C=Cc1ccc2c(c1)CCC(CC)N2S(=O)(=O)c1ccc(OCC2CCOCC2)c(CO)c1 (racemic)	36 nM	
CCc1cnc2c(c1)CCC(CC)N2S(=O)(=O)c1ccc(OCC2CCOCC2)c(CO)c1 (racemic)	35 nM	
CC[C@H]1CCc2cc(C(C)C)ccc2N1S(=O)(=O)c1ccc(OCC2CCOCC2)c(CO)c1	8.4 nM	IC50 [18]: 22.1 nM
CCC1CCc2cc(C(C)(C)O)ccc2N1S(=O)(=O)c1ccc(OCC2CCOCC2)c(CO)c1 (racemic)	1400 nM	
CCc1ccc2c(c1)CC(CC)CN2S(=O)(=O)c1ccc(OCC2CCOCC2)c(CO)c1 (racemic)	32 nM	
CCc1ccc2c(c1)CCC(CC)N2S(=O)(=O)c1ccc(OCCS(C)(=O)=O)c(CO)c1 (racemic)	1430 nM	
CCc1ccc2c(c1)CCC(CC)N2S(=O)(=O)c1ccc(OCC2CCS(=O)(=O)CC2)c(CO)c1 (racemic)	146 nM	
CCC1CCc2cc(C(F)(F)F)ccc2N1S(=O)(=O)c1ccc(OCC2CCOCC2)c(CO)c1 (racemic)	21 nM	
CCC1CCc2cc(CC(F)(F)F)ccc2N1S(=O)(=O)c1ccc(OCC2CCOCC2)c(CO)c1 (racemic)	23 nM	
CCc1ccc2c(c1)CCC(CC)N2S(=O)(=O)c1ccc(OCC2CCOCC2)c(S(C)(=O)=O)c1 (racemic)	1860 nM	
CCC1CCc2cc(CC(C)(F)F)ccc2N1S(=O)(=O)c1ccc(OCC2CCOCC2)c(CO)c1 (racemic)	16 nM	
CCc1ccc2c(c1)CCC(CC)N2S(=O)(=O)c1ccc(C(CO)N2CCOCC2)c(CO)c1 (racemic)	3120 nM	
CCc1ccc2c(c1F)CCC(CC)N2S(=O)(=O)c1ccc(OCC2CCOCC2)c(CO)c1 (racemic)	14 nM	
CCc1ccc2c(c1)CCC(CC)N2S(=O)(=O)c1ccc(OCc2ccncn2)c(CO)c1 (racemic)	300 nM	
CCc1ccc2c(c1)CCC(CC)N2S(=O)(=O)c1ccc(OC2CCN(S(C)(=O)=O)CC2)c(CO)c1 (racemic)	170 nM	
CCc1ccc2c(c1)CCC(CC)N2S(=O)(=O)c1ccc(OCC2CCOCC2)c(CO)n1 (racemic)	212 nM	
CCc1ccc2c(c1)CCC(CC)N2S(=O)(=O)c1ccc(C(O)CC2CCOCC2)c(CO)c1 (racemic)	201 nM	
CCc1ccc2c(c1)CCC(CC)N2S(=O)(=O)c1ccc(OC2CN(C(C)=O)C2)c(CO)c1 (racemic)	1760 nM	
